Laboratory results taken from publication PMC6437697 (Journal of Medicinal Chemistry, 2019).

Columns and labels:
Test in all cases: KINOMEscan
Format in all cases: binding
Conditions in all cases: read-out: % control activity remaining
CDKL1 = target: T1, CDKL1 (Homo sapiens, UniProt Q00532)
T1 construct: purchased Eurofins DiscoverX KINOMEscan

CSNK1G1 = target: T2, CSNK1G1 (Homo sapiens, UniProt Q9HCP0)
T2 construct: purchased Eurofins DiscoverX KINOMEscan

FLT3(D835Y) = target: T3, FLT3(D835Y) (Homo sapiens, UniProt P36888, D835Y)
T3 construct: purchased Eurofins DiscoverX KINOMEscan
T3 sequence (P36888 27-993 D835Y): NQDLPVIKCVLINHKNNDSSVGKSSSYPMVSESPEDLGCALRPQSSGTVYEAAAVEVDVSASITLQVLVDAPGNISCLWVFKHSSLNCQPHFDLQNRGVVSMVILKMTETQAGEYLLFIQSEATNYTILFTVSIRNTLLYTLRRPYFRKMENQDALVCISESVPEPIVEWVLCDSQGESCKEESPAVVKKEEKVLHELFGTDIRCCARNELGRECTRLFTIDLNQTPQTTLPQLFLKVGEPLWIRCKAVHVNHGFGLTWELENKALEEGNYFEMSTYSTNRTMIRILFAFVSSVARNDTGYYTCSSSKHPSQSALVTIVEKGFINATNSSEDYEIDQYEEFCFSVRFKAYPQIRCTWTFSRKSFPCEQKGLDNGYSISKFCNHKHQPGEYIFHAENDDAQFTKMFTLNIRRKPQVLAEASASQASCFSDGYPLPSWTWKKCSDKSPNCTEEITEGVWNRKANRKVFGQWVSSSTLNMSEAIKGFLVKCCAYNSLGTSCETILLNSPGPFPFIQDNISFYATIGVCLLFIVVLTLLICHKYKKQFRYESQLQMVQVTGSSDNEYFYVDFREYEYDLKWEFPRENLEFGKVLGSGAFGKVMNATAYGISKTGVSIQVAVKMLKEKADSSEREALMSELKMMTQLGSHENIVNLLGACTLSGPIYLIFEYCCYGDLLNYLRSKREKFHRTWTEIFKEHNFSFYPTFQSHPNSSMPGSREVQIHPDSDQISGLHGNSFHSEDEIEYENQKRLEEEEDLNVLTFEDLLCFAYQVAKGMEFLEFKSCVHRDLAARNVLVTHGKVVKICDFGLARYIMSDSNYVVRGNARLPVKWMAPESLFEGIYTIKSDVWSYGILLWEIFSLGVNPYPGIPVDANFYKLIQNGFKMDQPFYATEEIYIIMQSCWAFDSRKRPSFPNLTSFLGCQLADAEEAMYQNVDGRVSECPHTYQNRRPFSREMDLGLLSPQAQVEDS

MTOR = target: T4, MTOR (Homo sapiens, UniProt P42345)
T4 construct: purchased Eurofins DiscoverX KINOMEscan

NDR2 = target: T5, NDR2 (Homo sapiens, UniProt Q9Y2H1)
T5 construct: purchased Eurofins DiscoverX KINOMEscan
T5 sequence (Q9Y2H1 whole entry): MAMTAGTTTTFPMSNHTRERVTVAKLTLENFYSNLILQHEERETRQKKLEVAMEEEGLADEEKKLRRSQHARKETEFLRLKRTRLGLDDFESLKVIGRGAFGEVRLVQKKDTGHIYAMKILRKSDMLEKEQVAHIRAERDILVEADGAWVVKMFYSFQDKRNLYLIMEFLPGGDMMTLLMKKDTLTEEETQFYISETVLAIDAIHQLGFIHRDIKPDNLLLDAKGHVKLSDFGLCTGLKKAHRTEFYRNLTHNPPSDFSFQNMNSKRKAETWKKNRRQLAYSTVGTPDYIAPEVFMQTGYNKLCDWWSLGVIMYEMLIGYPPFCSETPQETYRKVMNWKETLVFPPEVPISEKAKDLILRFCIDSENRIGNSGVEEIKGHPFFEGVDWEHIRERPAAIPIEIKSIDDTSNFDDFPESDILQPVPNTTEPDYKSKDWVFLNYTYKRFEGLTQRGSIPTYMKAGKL

PAK3 = target: T6, PAK3 (Homo sapiens, UniProt O75914)
T6 construct: purchased Eurofins DiscoverX KINOMEscan
T6 sequence (O75914 whole entry): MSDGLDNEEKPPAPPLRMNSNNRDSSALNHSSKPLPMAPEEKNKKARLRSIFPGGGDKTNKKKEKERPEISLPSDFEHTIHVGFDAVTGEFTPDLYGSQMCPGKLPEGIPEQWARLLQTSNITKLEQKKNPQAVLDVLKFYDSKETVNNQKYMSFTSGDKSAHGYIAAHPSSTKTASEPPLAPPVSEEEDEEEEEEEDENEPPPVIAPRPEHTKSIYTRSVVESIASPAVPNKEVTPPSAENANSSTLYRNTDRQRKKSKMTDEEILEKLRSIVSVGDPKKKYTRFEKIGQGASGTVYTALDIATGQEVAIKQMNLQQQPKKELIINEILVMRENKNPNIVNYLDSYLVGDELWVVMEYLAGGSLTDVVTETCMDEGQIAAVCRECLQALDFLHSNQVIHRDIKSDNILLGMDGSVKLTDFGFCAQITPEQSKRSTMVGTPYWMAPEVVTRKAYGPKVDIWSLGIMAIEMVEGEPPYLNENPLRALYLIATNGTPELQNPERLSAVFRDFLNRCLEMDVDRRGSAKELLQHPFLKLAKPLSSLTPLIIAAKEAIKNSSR

PIK3CD = target: T7, PIK3CD (Homo sapiens, UniProt O00329)
T7 construct: purchased Eurofins DiscoverX KINOMEscan
T7 sequence (O00329 1-1044): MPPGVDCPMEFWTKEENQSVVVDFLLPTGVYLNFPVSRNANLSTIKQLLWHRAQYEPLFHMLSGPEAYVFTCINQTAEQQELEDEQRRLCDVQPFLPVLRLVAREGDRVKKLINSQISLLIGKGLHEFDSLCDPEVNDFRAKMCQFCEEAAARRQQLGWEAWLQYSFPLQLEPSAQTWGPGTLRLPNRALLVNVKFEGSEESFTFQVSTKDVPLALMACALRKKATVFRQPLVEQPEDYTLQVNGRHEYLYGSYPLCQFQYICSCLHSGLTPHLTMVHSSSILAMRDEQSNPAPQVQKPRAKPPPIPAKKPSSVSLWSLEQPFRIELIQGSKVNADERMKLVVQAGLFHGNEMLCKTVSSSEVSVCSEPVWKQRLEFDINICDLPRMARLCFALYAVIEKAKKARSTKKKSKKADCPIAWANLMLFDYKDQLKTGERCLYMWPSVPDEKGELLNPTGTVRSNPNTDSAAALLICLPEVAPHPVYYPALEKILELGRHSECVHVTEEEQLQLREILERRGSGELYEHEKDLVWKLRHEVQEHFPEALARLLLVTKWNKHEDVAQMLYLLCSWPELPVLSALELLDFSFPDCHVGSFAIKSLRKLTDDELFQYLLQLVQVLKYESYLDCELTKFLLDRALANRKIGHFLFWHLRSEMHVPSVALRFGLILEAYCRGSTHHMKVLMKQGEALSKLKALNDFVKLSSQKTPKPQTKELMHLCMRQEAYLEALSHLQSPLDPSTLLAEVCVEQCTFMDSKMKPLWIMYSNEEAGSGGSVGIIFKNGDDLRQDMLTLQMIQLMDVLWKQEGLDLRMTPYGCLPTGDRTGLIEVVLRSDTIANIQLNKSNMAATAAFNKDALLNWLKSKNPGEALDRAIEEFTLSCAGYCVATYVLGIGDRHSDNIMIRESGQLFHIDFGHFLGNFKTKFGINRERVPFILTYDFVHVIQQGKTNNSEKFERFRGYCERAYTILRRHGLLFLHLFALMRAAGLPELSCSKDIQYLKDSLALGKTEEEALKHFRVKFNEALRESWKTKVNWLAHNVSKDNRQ

SRPK2 = target: T8, SRPK2 (Homo sapiens, UniProt P78362)
T8 construct: purchased Eurofins DiscoverX KINOMEscan
T8 sequence (P78362 whole entry): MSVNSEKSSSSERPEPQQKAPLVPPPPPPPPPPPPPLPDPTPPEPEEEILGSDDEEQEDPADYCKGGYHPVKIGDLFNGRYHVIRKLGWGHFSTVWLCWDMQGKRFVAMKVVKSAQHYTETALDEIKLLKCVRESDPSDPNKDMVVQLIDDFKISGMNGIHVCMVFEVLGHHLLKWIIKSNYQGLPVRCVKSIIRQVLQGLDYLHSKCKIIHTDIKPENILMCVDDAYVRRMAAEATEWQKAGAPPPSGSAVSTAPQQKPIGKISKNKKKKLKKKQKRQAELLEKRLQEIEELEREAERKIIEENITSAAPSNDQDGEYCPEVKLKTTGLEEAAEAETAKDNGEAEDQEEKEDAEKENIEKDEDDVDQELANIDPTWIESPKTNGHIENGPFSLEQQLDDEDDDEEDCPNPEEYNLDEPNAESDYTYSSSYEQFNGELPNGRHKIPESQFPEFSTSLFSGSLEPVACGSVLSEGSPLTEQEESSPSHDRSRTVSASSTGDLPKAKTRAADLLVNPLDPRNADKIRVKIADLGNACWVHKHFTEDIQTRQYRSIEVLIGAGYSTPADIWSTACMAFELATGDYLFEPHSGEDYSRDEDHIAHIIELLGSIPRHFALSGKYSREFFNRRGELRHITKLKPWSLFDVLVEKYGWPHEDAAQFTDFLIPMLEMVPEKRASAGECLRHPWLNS

T2 sequence (Q9HCP0 whole entry): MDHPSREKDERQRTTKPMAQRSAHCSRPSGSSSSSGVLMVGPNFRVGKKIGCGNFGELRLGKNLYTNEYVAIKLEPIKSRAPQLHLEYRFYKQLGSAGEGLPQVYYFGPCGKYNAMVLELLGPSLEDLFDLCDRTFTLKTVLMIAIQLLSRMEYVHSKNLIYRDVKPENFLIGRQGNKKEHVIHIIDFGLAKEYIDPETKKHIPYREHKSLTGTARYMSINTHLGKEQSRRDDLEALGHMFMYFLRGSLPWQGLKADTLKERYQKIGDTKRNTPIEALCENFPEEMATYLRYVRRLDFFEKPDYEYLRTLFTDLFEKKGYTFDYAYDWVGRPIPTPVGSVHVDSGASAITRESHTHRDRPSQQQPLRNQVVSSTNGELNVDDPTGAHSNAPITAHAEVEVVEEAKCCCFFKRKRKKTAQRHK
T1 sequence (Q00532 whole entry): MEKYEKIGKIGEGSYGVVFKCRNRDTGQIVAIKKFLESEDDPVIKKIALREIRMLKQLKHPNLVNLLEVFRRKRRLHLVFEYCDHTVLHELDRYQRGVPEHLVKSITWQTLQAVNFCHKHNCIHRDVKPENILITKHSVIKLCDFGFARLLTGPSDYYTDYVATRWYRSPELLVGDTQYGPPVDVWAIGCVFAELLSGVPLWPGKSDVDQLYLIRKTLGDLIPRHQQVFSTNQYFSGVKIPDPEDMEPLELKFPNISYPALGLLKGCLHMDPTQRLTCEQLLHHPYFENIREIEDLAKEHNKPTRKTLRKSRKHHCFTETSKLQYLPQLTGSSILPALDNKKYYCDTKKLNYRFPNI

Structure (SMILES)	remaining binding at 1 µM (CDKL1) [%]	remaining binding at 1 µM (CSNK1G1) [%]	remaining binding at 1 µM (FLT3(D835Y)) [%]	remaining binding at 1 µM (MTOR) [%]	remaining binding at 1 µM (NDR2) [%]	remaining binding at 1 µM (PAK3) [%]	remaining binding at 1 µM (PIK3CD) [%]	remaining binding at 1 µM (SRPK2) [%]
Clc1cc(NCC2CC2)c2ncc(-c3ccc4[nH]ncc4c3)n2n1 [compound 2, 6-Chloro-N-(cyclopropylmethyl)-3-(1H-indazol-5-yl)imidazo[1,2-b]pyridazin-8-amine]	74	100	10	98	94	63	92	73
O=C(CN1CCOCC1)N[C@H]1CC[C@H](Nc2cc(Cl)nn3c(-c4ccc5[nH]ncc5c4)cnc23)CC1 [compound 26]	90	95	17	100	94	81	90	79
CN1CCC(CNc2cc(Cl)nn3c(-c4cc5nc(Nc6ccccc6)[nH]c5cc4F)cnc23)CC1 [compound 31, 6-Chloro-3-(6-fluoro-2-(phenylamino)-1H-benzo[d]imidazol-5-yl)-N-((1-methylpiperidin-4-yl)methyl)imidazo[1,2-b]pyridazin-8-amine]	67	100	100	89	100	100	75	93
